Series [1] deals with Veronica persica. Put plainly: Weed plant herbicidal activity, post-emergence. The class given is in vivo. To be noted: three-leaf stage, 80 g of active substance per hectare, scored after 3 to 4 weeks. As to the method: (§1) 2. Weed plant herbicidal activity and crop plant tolerance, post-emergence Seeds of monocot and dicot weed plants and of crop plants are placed in sandy loam in cardboard pots, covered with soil, and grown under good growth conditions in a greenhouse. Two to three weeks after sowing, the experimental plants are treated at the three-leaf stage. The compounds of the invention, formulated as wettable powders or as emulsifiable concentrates, are sprayed at different dosages onto the surface of the green parts of the plants at an application rate of 600 to 800 l of water per ha (converted). After the experimental plants have stood in the greenhouse for 3 to 4 weeks under optimum growth conditions, the activity of the compounds is scored. […] At the same application rate this compound of the invention causes no damage to the crop plant Oryza sativa (rice) and 20% damage to Triticum aestivum (wheat).

In series [2] the test system is Digitaria sanguinalis. In words: Weed plant herbicidal activity, post-emergence. The class given is in vivo. To be noted: three-leaf stage, 80 g of active substance per hectare, scored after 3 to 4 weeks. The method, then:
as §1

The subject of another series is Pharbitis purpureum. In words: Weed plant herbicidal activity, post-emergence. The class given is in vivo. Conditions: three-leaf stage, 80 g of active substance per hectare, scored after 3 to 4 weeks. The method, then: as §1
The next series relates to Matricaria inodora. In words: Weed plant herbicidal activity, post-emergence. To be noted: three-leaf stage, 80 g of active substance per hectare, scored after 3 to 4 weeks. The class given is in vivo. As to the method: as §1
In the next series the test system is Chenopodium album. Put plainly: Weed plant herbicidal activity, post-emergence. The class given is in vivo. To be noted: three-leaf stage, 80 g of active substance per hectare, scored after 3 to 4 weeks. The method, then: as §1
A further series concerns Avena fatua. Put plainly: Weed plant herbicidal activity, pre-emergence. The class given is in vivo. Conditions: 20 g of active substance per hectare, visual scoring after 3 to 4 weeks. An excerpt: (§2) 1. Weed plant herbicidal activity and crop plant tolerance, pre-emergence Seeds of monocot and dicot weed plants and of crop plants are placed in sandy loam soil in cardboard pots and are covered with soil. The compounds of the invention, formulated as wettable powders or emulsifiable concentrates, are then applied as an aqueous suspension or emulsion, respectively, in different dosages to the surface of the covering soil at an application rate of 600 to 800 l of water per ha (converted). Following treatment, the pots are placed in a greenhouse and kept under good growth conditions for the weeds. Visual scoring of the plant damage or emergence damage is made after the experimental plants have emerged, after an experimental period of 3 to 4 weeks, in comparison with untreated controls. […] At the same application rate this compound of the invention causes no damage to the crop plants Oryza sativa (rice) or Zea mays (maize).

A further series has as its system Agropyrons repens. Put plainly: Weed plant herbicidal activity, pre-emergence. The series is classed as in vivo. To be noted: 20 g of active substance per hectare, visual scoring after 3 to 4 weeks.
From the text: as §2

The subject of another series is Sorghum halepense. Put plainly: Weed plant herbicidal activity, pre-emergence. The class given is in vivo. To be noted: 20 g of active substance per hectare, visual scoring after 3 to 4 weeks.
From the text: as §2

Series [3] relates to Veronica persica. Put plainly: Weed plant herbicidal activity, pre-emergence. The class given is in vivo. Conditions: 20 g of active substance per hectare, visual scoring after 3 to 4 weeks.
From the text: as §2

The subject of a further series is Galium aparine. In words: Weed plant herbicidal activity, pre-emergence. The class given is in vivo. Conditions: 20 g of active substance per hectare, visual scoring after 3 to 4 weeks.
From the text: as §2

The next series deals with Setaria viridis. In words: Weed plant herbicidal activity, pre-emergence. The class given is in vivo. To be noted: 20 g of active substance per hectare, visual scoring after 3 to 4 weeks.
From the text: as §2

In another series the test system is Lolium multiflorum. Put plainly: Weed plant herbicidal activity, pre-emergence. The series is classed as in vivo. To be noted: 20 g of active substance per hectare, visual scoring after 3 to 4 weeks.
From the text: as §2

Series [4] has as its system Digitaria sanguinalis. In words: Weed plant herbicidal activity, pre-emergence. Conditions: 20 g of active substance per hectare, visual scoring after 3 to 4 weeks. The series is classed as in vivo.
From the text: as §2

Another series relates to Amaranthus retroflexus. Put plainly: Weed plant herbicidal activity, pre-emergence. The class given is in vivo. Conditions: 20 g of active substance per hectare, visual scoring after 3 to 4 weeks.
From the text: as §2

A further series relates to Alopecurus myosuroides. In words: Weed plant herbicidal activity, pre-emergence. The class given is in vivo. Conditions: 20 g of active substance per hectare, visual scoring after 3 to 4 weeks.
From the text: as §2

The subject of a further series is Zea mays (maize). Put plainly: Crop plant tolerance, pre-emergence. The series is classed as in vivo. Conditions: 20 g of active substance per hectare, 3 to 4 weeks.
From the text: as §2

The subject of series [5] is Oryza sativa (rice). Put plainly: Crop plant tolerance, pre-emergence. The series is classed as in vivo. Conditions: 20 g of active substance per hectare, 3 to 4 weeks.
From the text: as §2

In series [6] the test system is Triticum aestivum (wheat). In words: Crop plant tolerance, post-emergence. To be noted: 80 g of active substance per hectare, 3 to 4 weeks. The class given is in vivo. As to the method: as §1
Series [7] relates to Oryza sativa (rice). Put plainly: Crop plant tolerance, post-emergence. To be noted: 80 g of active substance per hectare, 3 to 4 weeks. The series is classed as in vivo. The method, then: as §1

By melting point is commonly meant the temperature, or range, at which the solid turns liquid. Compound `Cc1cnc(-n2cc(C(F)(F)F)cn2)nc1Oc1csc(C(F)(F)F)c1` [1.8, 5-methyl-2-(4-trifluoromethyl-1H-1-pyrazolyl)-4-(5-trifluoromethyl-3-thienyloxy)pyrimidine] gave a melting point of 94 to 96 °C.
In the case of `COc1cnc(-n2cc(C(F)(F)F)cn2)nc1Oc1csc(C(F)(F)F)c1` [Example No. 1.22, 5-methoxy-2-(4-trifluoromethyl-1H-1-pyrazolyl)-4-(5-trifluoromethyl-3-thienyloxy)pyrimidine], the melting point was 109 to 111 °C. In addition, in the series on Veronica persica [1], the “activity against Veronica persica” value is listed as “at least 90%”. Moreover, the “activity against Digitaria sanguinalis” value with Digitaria sanguinalis [2] was “at least 90%”. Moreover, the “activity against Pharbitis purpureum” value in the series on Pharbitis purpureum is “at least 90%”. In the series with Matricaria inodora, the “activity against Matricaria inodora” value was “at least 90%”. Also, the “activity against Chenopodium album” value in the series with Chenopodium album was “at least 90%”. For the same compound, the “activity against Avena fatua” value with Avena fatua is on record as “at least 80%”. Moreover, the “activity against Agropyrons repens” value in the series on Agropyrons repens is reported as “at least 80%”. Further, the “activity against Sorghum halepense” value with Sorghum halepense was “at least 80%”. For the same compound, the “activity against Veronica persica” value with Veronica persica [3] is reported as “at least 80%”. Also, the “activity against Galium aparine” value with Galium aparine is “at least 80%”. The “activity against Setaria viridis” value in the series on Setaria viridis is given as “at least 80%”. The “activity against Lolium multiflorum” value in the series on Lolium multiflorum is reported as “at least 80%”. Besides, the “activity against Digitaria sanguinalis” value in the series on Digitaria sanguinalis [4] is “at least 80%”. Besides, in the series on Amaranthus retroflexus, the “activity against Amaranthus retroflexus” value is on record as “at least 80%”. Moreover, the “activity against Alopecurus myosuroides” value in the series on Alopecurus myosuroides is given as “at least 80%”. In addition, the “damage to the crop plant Zea mays (maize)” value in the series on Zea mays (maize) is given as “no damage”. Further, the “damage to the crop plant Oryza sativa (rice)” value in the series with Oryza sativa (rice) [5] is reported as “no damage”. The “damage to Triticum aestivum (wheat)” value in series [6] was found to be 20%. In addition, in the series with Oryza sativa (rice) [7], the “damage to the crop plant Oryza sativa (rice)” value is “no damage”.

The record behind these values is patent US7022650B2, “4-trifluoromethylpyrazolyl-substituted pyridines and pyrimidines” (Bayer CropScience GmbH, priority 2002, dated 2006).
